From US6552068B1, “3-ethyl-, 3-propyl- or 3-butyl-chroman and thiochroman derivatives” (Chugai Seiyaku Kabushiki Kaisha, priority 1999, dated 2003)

The compounds below were run on ovariectomized mice administered with 17β-estradiol (increase in uterine weight) (assay: Anti-estrogenic activity (oral administration): inhibition of estradiol-induced increase in uterine weight). Details: 10 mg/kg p.o. once a day for 3 days, suspended in 5% arabic gum; ovariectomized ICR mice given 17β-estradiolbenzoate 0.1 μg/mouse s.c. for 3 days; uteri weighed 24 hours after last administration.
Assay type: in vivo
Procedure: Test compounds were assayed for their oral anti-estrogenic activity in the following manner. In this experiment, the compounds prepared in Examples mentioned above were used as test compounds. As control compounds, the following two were used: a compound described in Example 7 of WO98/25916 and a compound corresponding to general formula (1) of the present invention, provided that R1 was a methyl group, i.e., 10-[(3RS,4RS)-7-hydroxy-3-(4-hydroxyphenyl)-3-methylthiochroman-4-yl]-2-(4,4,5,5,5-pentafluoropentyl)decanoic acid, which had been synthesized according to Reaction Schemes 1 to 7 mentioned above.
In this experiment, each of the test and control compounds was suspended in 5% arabic gum solution and orally administered for 3 days on a once-a-day basis. After 24 hours from the last administration, the test animals were sacrificed and the uteri were removed and weighed.
In the case of `CCC[C@@]1(c2ccc(O)cc2)CSc2cc(O)ccc2[C@@H]1CCCCCCCCCC(CCCC(F)(F)C(F)(F)F)C(=O)O` (mixture of isomers) [Example 38, 11-[(3RS,4RS)-7-hydroxy-3-(4-hydroxyphenyl)-3-propylthiochroman-4-yl]-2-(4,4,5,5,5,-pentafluoropentyl)undecanoic acid], the “Inhibition (%) of the increase in uterine weight” value is reported as 84%.

Same assay, conditions: po; 10 mg/kg p.o. once a day for 3 days, suspended in 5% arabic gum; ovariectomized ICR mice given 17β-estradiolbenzoate 0.1 μg/mouse s.c. for 3 days; uteri weighed 24 hours after last administration
In the case of `C[C@@]1(c2ccc(O)cc2)CSc2cc(O)ccc2[C@@H]1CCCCCCCCC(CCCC(F)(F)C(F)(F)F)C(=O)O` (mixture of isomers) [10-[(3RS,4RS)-7-hydroxy-3-(4-hydroxyphenyl)-3-methylthiochroman-4-yl]-2-(4,4,5,5,5-pentafluoropentyl)decanoic acid, reference compound], the inhibition in vivo at 10 mg/kg is reported as 75%. `CC[C@]1(c2ccc(O)cc2)CSc2cc(O)ccc2[C@H]1CCCCCCCCC(CCCCCC(F)(F)C(F)(F)F)C(=O)O` (mixture of isomers) [Example 14, 10-[(3RS,4RS)-3-ethyl-7-hydroxy-3-(4-hydroxyphenyl)thiochroman-4-yl]-2-(6,6,7,7,7-pentafluoroheptyl)decanoic acid] showed an inhibition in vivo at 10 mg/kg of 81%. `CC[C@]1(c2ccc(O)cc2)CSc2cc(O)ccc2[C@H]1CCCCCCCCC(CCCCC(F)(F)C(F)(F)F)C(=O)O` (mixture of isomers) [Example 15, 10-[(3RS,4RS)-3-ethyl-7-hydroxy-3-(4-hydroxyphenyl)thiochroman-4-yl]-2-(5,5,6,6,6-pentafluorohexyl)decanoic acid] showed an inhibition in vivo at 10 mg/kg of 92%. `CC[C@]1(c2ccc(O)cc2)CSc2cc(O)ccc2[C@H]1CCCCCCCCC(CCCC(F)(F)C(F)(F)F)C(=O)O` (mixture of isomers) [Example 16, 10-[(3RS,4RS)-3-ethyl-7-hydroxy-3-(4-hydroxyphenyl)thiochroman-4-yl]-2-(4,4,5,5,5-pentafluoropentyl)decanoic acid] was tested, and the inhibition in vivo at 10 mg/kg was 96%. For `CC[C@]1(c2ccc(O)cc2)CSc2cc(O)ccc2[C@H]1CCCCCCCCCC(CCCC(F)(F)C(F)(F)F)C(=O)O` (mixture of isomers) [Example 20, 11-[(3RS,4RS)-3-ethyl-7-hydroxy-3-(4-hydroxyphenyl)thiochroman-4-yl]-2-(4,4,5,5,5-pentafluoropentyl)undecanoic acid], the inhibition in vivo at 10 mg/kg was 91%. With `CC[C@@]1(c2ccc(O)cc2)COc2cc(O)ccc2[C@@H]1CCCCCCCCCC(CCCCCC(F)(F)C(F)(F)F)C(=O)O` (mixture of isomers) [Example 22, 11-[(3RS,4RS)-3-ethyl-7-hydroxy-3-(4-hydroxyphenyl)chroman-4-yl]-2-(6,6,7,7,7-pentafluoroheptyl)undecanoic acid] the inhibition in vivo at 10 mg/kg was 83%. With `CCC[C@@]1(c2ccc(O)cc2)CSc2cc(O)ccc2[C@@H]1CCCCCCCCC(CCCC(F)(F)C(F)(F)F)C(=O)O` (mixture of isomers) [Example 29, 10-[(3RS,4RS)-7-hydroxy-3-(4-hydroxyphenyl)-3-propylthiochroman-4-yl]-2-(4,4,5,5,5-pentafluoropentyl)decanoic acid] the inhibition in vivo at 10 mg/kg was 91%. With `CC[C@@]1(c2ccc(O)cc2)CSc2cc(O)ccc2[C@@H]1CCCCCCCCCC(CCC(F)(F)C(F)(F)C(F)(F)C(F)(F)F)C(=O)O` (mixture of isomers) [Example 30, 11-[(3RS,4RS)-3-ethyl-7-hydroxy-3-(4-hydroxyphenyl)thiochroman-4-yl]-2-(3,3,4,4,5,5,6,6,6-nonafluorohexyl)undecanoic acid] the inhibition in vivo at 10 mg/kg was 89%. For `CC[C@@]1(c2ccc(O)cc2)CSc2cc(O)ccc2[C@@H]1CCCCCCCCC(CCC(F)(F)C(F)(F)C(F)(F)C(F)(F)F)C(=O)O` (mixture of isomers) [Example 31, 10-[(3RS,4RS)-3-ethyl-7-hydroxy-3-(4-hydroxyphenyl)thiochroman-4-yl]-2-(3,3,4,4,5,5,6,6,6-nonafluorohexyl)decanoic acid], the inhibition in vivo at 10 mg/kg was 85%. Work on `CC[C@@]1(c2ccc(O)cc2)COc2cc(O)ccc2[C@@H]1CCCCCCCCCC(CCC(F)(F)C(F)(F)C(F)(F)C(F)(F)F)C(=O)O` (mixture of isomers) [Example 32, 11-[(3RS,4RS)-3-ethyl-7-hydroxy-3-(4-hydroxyphenyl)chroman-4-yl]-2-(3,3,4,4,5,5,6,6,6-nonafluorohexyl)undecanoic acid] yielded an inhibition in vivo at 10 mg/kg of 82%. `CC[C@@]1(c2ccc(O)cc2)COc2cc(O)ccc2[C@@H]1CCCCCCCCC(CCCC(F)(F)C(F)(F)C(F)(F)C(F)(F)F)C(=O)O` (mixture of isomers) [Example 34, 10-[(3RS,4RS)-3-ethyl-7-hydroxy-3-(4-hydroxyphenyl)chroman-4-yl]-2-(4,4,5,5,6,6,7,7,7-nonafluoroheptyl)decanoic acid] showed an inhibition in vivo at 10 mg/kg of 90%. Work on `CC[C@@]1(c2ccc(O)cc2)COc2cc(O)ccc2[C@@H]1CCCCCCCCCC(CCCC(F)(F)C(F)(F)C(F)(F)C(F)(F)F)C(=O)O` (mixture of isomers) [Example 35, 11-[(3RS,4RS)-3-ethyl-7-hydroxy-3-(4-hydroxyphenyl)chroman-4-yl]-2-(4,4,5,5,6,6,7,7,7-nonafluoroheptyl)undecanoic acid] yielded an inhibition in vivo at 10 mg/kg of 93%. `CCC[C@@]1(c2ccc(O)cc2)CSc2cc(O)ccc2[C@@H]1CCCCCCCCC(CCCCC(F)(F)C(F)(F)F)C(=O)O` (mixture of isomers) [Example 36, 10-[(3RS,4RS)-7-hydroxy-3-(4-hydroxyphenyl)-3-propylthiochroman-4-yl]-2-(5,5,6,6,6-pentafluorohexyl)decanoic acid] was tested, and the inhibition in vivo at 10 mg/kg was 89%. Work on `CCC[C@@]1(c2ccc(O)cc2)CSc2cc(O)ccc2[C@@H]1CCCCCCCCCC(CCC(F)(F)C(F)(F)C(F)(F)C(F)(F)F)C(=O)O` (mixture of isomers) [Example 39, 11-[(3RS,4RS)-7-hydroxy-3-(4-hydroxyphenyl)-3-propylthiochroman-4-yl]-2-(3,3,4,4,5,5,6,6,6-nonafluorohexyl)undecanoic acid] yielded an inhibition in vivo at 10 mg/kg of 84%. For `CCC[C@@]1(c2ccc(O)cc2)COc2cc(O)ccc2[C@@H]1CCCCCCCCC(CCCCC(F)(F)C(F)(F)F)C(=O)O` (mixture of isomers) [Example 40, 10-[(3RS,4RS)-7-hydroxy-3-(4-hydroxyphenyl)-3-propylchroman-4-yl]-2-(5,5,6,6,6-pentafluorohexyl)decanoic acid], the inhibition in vivo at 10 mg/kg was 82%. `CCC[C@@]1(c2ccc(O)cc2)COc2cc(O)ccc2[C@@H]1CCCCCCCCC(CCC(F)(F)C(F)(F)C(F)(F)C(F)(F)F)C(=O)O` (mixture of isomers) [Example 41, 10-[(3RS,4RS)-7-hydroxy-3-(4-hydroxyphenyl)-3-propylchroman-4-yl]-2-(3,3,4,4,5,5,6,6,6-nonafluorohexyl)decanoic acid] showed an inhibition in vivo at 10 mg/kg of 89%. In the case of `CCC[C@@]1(c2ccc(O)cc2)COc2cc(O)ccc2[C@@H]1CCCCCCCCC(CCCC(F)(F)C(F)(F)C(F)(F)C(F)(F)F)C(=O)O` (mixture of isomers) [Example 42, 10-[(3RS,4RS)-7-hydroxy-3-(4-hydroxyphenyl)-3-propylchroman-4-yl]-2-(4,4,5,5,6,6,7,7,7-nonafluoroheptyl)decanoic acid], the inhibition in vivo at 10 mg/kg is reported as 95%. `CCC[C@@]1(c2ccc(O)cc2)COc2cc(O)ccc2[C@@H]1CCCCCCCCCC(CCCC(F)(F)C(F)(F)F)C(=O)O` (mixture of isomers) [Example 43, 11-[(3RS,4RS)-7-hydroxy-3-(4-hydroxyphenyl)-3-propylchroman-4-yl]-2-(4,4,5,5,5-pentafluoropentyl)undecanoic acid] was tested, and the inhibition in vivo at 10 mg/kg was 85%. With `CCC[C@@]1(c2ccc(O)cc2)COc2cc(O)ccc2[C@@H]1CCCCCCCCCC(CCCCC(F)(F)C(F)(F)F)C(=O)O` (mixture of isomers) [Example 44, 11-[(3RS,4RS)-7-hydroxy-3-(4-hydroxyphenyl)-3-propylchroman-4-yl]-2-(5,5,6,6,6-pentafluorohexyl)undecanoic acid] the inhibition in vivo at 10 mg/kg was 84%. Work on `CCC[C@@]1(c2ccc(O)cc2)COc2cc(O)ccc2[C@@H]1CCCCCCCCCC(CCC(F)(F)C(F)(F)C(F)(F)C(F)(F)F)C(=O)O` (mixture of isomers) [Example 45, 11-[(3RS,4RS)-7-hydroxy-3-(4-hydroxyphenyl)-3-propylchroman-4-yl]-2-(3,3,4,4,5,5,6,6,6-nonafluorohexyl)undecanoic acid] yielded an inhibition in vivo at 10 mg/kg of 85%. With `CCC[C@@]1(c2ccc(O)cc2)COc2cc(O)ccc2[C@@H]1CCCCCCCCCC(CCCC(F)(F)C(F)(F)C(F)(F)C(F)(F)F)C(=O)O` (mixture of isomers) [Example 46, 11-[(3RS,4RS)-7-hydroxy-3-(4-hydroxyphenyl)-3-propylchroman-4-yl]-2-(4,4,5,5,6,6,7,7,7-nonafluoroheptyl)undecanoic acid] the inhibition in vivo at 10 mg/kg was 94%. `CCCC[C@@]1(c2ccc(O)cc2)COc2cc(O)ccc2[C@@H]1CCCCCCCCC(CCCC(F)(F)C(F)(F)C(F)(F)C(F)(F)F)C(=O)O` (mixture of isomers) [Example 47, 10-[(3RS,4RS)-3-butyl-7-hydroxy-3-(4-hydroxyphenyl)chroman-4-yl]-2-(4,4,5,5,6,6,7,7,7-nonafluoroheptyl)decanoic acid] was tested, and the inhibition in vivo at 10 mg/kg was 89%.
